Experiments:
Format in all cases: cell-based
Fadu cells = assay: Fadu Cell Growth Inhibition Test (MTT Assay); settings: Homo sapiens, 72 h incubation
How it was run: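 Fadu head and neck cancer cells in EMEM + 10% FBS, 6000 cells/well, dosed next day and incubated 72 h at 37 °C, 5% CO2. MTT 0.5 mg/ml for 3 h, DMSO solubilization, OD at 490 nm; inhibition ratio from positive and negative controls, IC50 from fitted curve.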

SK-OV-3 cells = assay: SK-OV-3 Cell Growth Inhibition Test (MTT Assay); settings: Homo sapiens, 72 h incubation
Experimental: SK-OV-3 Cell Growth Inhibition Test (MTT Assay)
Cell strains: SK-OV-3 (human ovarian cancer cell strains);
Culture medium: 90% McCoy's 5A+10% FBS;
1. A plate (10 cm) of cells in logarithmic growth phase normally cultured was collected;
2. The culture solution was sucked out. The plate was washed with 5 ml of PBS 1-2 times;
3. PBS was sucked out. 1.5 ml of 0.25% pancreatin was added to infiltrate the cells for 1 min;
4. The pancreatin was sucked out. The culture plate was placed in an incubator. Digestion was carried out for about 5 min at 37° C.;
5. 4.5 ml of complete culture solution was added to the culture plate to stop the digestion.T the cells were carefully scoured with micropipette (1 ml) to give a uniform cell suspension. The suspension was implanted into a 96-well cell culture disc by 4000 cells/100 μl per well. The culture plate was incubated overnight under 5% CO2 at 37° C. In day 2, 100 μl of culture solution comprising a compound was added in each well, and further incubated for 72 h under 5% CO2 at 37° C.
6. The culture solution was sucked out;
7. 100 μl of serum-free culture solution containing 0.5 mg/ml MTT was added in each well, and incubated for 3 h;
8. The culture solution was carefully sucked out;
9. 100 μl of DMSO was added in each well and vibrated to dissolve;
10. OD values were determined at 490 nM.
(§1) 1. Calculation of Relative Inhibition Ratio The inhibition ratio of a compound on cell growth=(PC−n)/(PC−NC)×100%
(§2) IC50: Concentration of a compound where inhibition ratio was 50%. IC50 values were fitted with Origin7.5.

CCRF-CEM/T cells = assay: CCRF-CEM/T Cell Growth Inhibition Test (MTT Assay); settings: Homo sapiens, CCRF-CEM/T cells (resistant to paclitaxel), 72 h incubation
Experimental: CCRF-CEM/T Cell Growth Inhibition Test (MTT Assay)
Cell strains: CCRF-CEM/T (human acute lymphocytic cell leukemia cells);
triple lysate solution: 10% SDS, 5% isobutanol, 0.012M HCl.
1. Cells were cultured to exponential phase. The cells were suspension cells;
2. The cells were collected by centrifuge. The resulting cells were resuspended in a complete culture medium to a desired concentration. The cells suspension was implanted into a 96-well cell culture plate by 20000 cells per well. A compound was added in the wellsuch that the final volume of the system was 120 μl. The system was further incubated for 72 h under 5% CO2 at 37° C.
7. 30 μl of serum-free culture solution containing 2.5 mg/ml MTT was added in each well, and incubated for 3 h;
8. 150 μl of triple lysate solution was added in each well and placed to dissolve at the room temperature;
9. OD values were determined at 570 nM.
as §1, §2

IC50 (SK-OV-3 cells) [nM]	IC50 (CCRF-CEM/T cells) [nM]	SMILES	IC50 (Fadu cells) [nM]
–	–	C#Cc1cccc(Nc2c(C#N)cnc3cc(O[C@H]4CCOC4)c(NC(=O)/C=C/CN4CCCCC4)cc23)c1 [Example 144, (S,E)-N-(3-CYANO-4-(3-ETHYNYLPHENYLAMINO)-7-(TETRAHYDROFURAN-3-YL-OXY)QUINOLIN-6-YL)-4-(PIPERIDIN-1-YL)-BUT-2-ENAMIDE]	103
–	–	N#Cc1cnc2cc(O[C@H]3CCOC3)c(NC(=O)/C=C/CN3CCOCC3)cc2c1Nc1ccc(OCc2ccccn2)c(Cl)c1 [Example 152, (S,E)-N-(4-(3-CHLORO-4-(PYRIDIN-2-YL-METHOXY)PHENYLAMINO)-3-CYANO-7-(TETRAHYDROFURAN-3-YL-OXY)QUINOLIN-6-YL)-4-(MORPHOLIN-4-YL)-BUT-2-ENAMIDE]	170
–	–	CN(C)C/C=C/C(=O)Nc1cc2c(Nc3ccc(OCc4ccccc4)c(Cl)c3)c(C#N)cnc2cc1OC1CCOC1 (stereo not shown) [Example 12, (E)-N-(4-(4-(BENZYLOXY)-3-CHLOROPHENYLAMINO)-3-CYANO-7-(TETRAHYDROFURAN-3-YL-OXY)QUINOLIN-6-YL)-4-(DIMETHYLAMINO)-BUT-2-ENAMIDE]	202
–	–	C#Cc1cccc(Nc2c(C#N)cnc3cc(O[C@H]4CCOC4)c(NC(=O)/C=C/CN4CCOCC4)cc23)c1 [Example 145, (S,E)-N-(3-CYANO-4-(3-ETHYNYLPHENYLAMINO)-7-(TETRAHYDROFURAN-3-YL-OXY)QUINOLIN-6-YL)-4-(MORPHOLIN-4-YL)-BUT-2-ENAMIDE]	194
283	9100	C#Cc1cccc(Nc2c(C#N)cnc3cc(O[C@@H]4CCOC4)c(NC(=O)/C=C/CN(C)C)cc23)c1 [Example 141, (R,E)-N-(3-CYANO-4-(3-ETHYNYLPHENYLAMINO)-7-(TETRAHYDROFURAN-3-YL-OXY)QUINOLIN-6-YL)-4-(DIMETHYLAMINO)-BUT-2-ENAMIDE]	–
–	–	CC(C)(C)NC/C=C/C(=O)Nc1cc2c(Nc3ccc(OCc4ccccn4)c(Cl)c3)c(C#N)cnc2cc1O[C@H]1CCOC1 [Example 153, (S,E)-N-(4-(3-CHLORO-4-(PYRIDIN-2-YL-METHOXY)PHENYLAMINO)-3-CYANO-7-(TETRAHYDROFURAN-3-YL-OXY)QUINOLIN-6-YL)-4-(TERT-BUTYLAMINO)-BUT-2-ENAMIDE]	231
–	–	CN(C)C/C=C/C(=O)Nc1cc2c(Nc3ccc(OCc4cccc(C#N)c4)c(Cl)c3)c(C#N)cnc2cc1OC1CCOC1 (stereo not shown) [Example 15, (E)-N-(4-(4-(3-CYANOBENZYLOXY)-3-CHLOROPHENYLAMINO)-3-CYANO-7-(TETRAHYDROFURAN-3-YL-OXY)QUINOLIN-6-YL)-4-(DIMETHYLAMINO)-BUT-2-ENAMIDE]	260
–	–	C#Cc1cccc(Nc2c(C#N)cnc3cc(O[C@H]4CCOC4)c(NC(=O)/C=C/CN(CC)CC)cc23)c1 [Example 143, (S,E)-N-(3-CYANO-4-(3-ETHYNYLPHENYLAMINO)-7-(TETRAHYDROFURAN-3-YL-OXY)QUINOLIN-6-YL)-4-(DIETHYLAMINO)-BUT-2-ENAMIDE]	127
371	1400	CN(C)C/C=C/C(=O)Nc1cc2c(Nc3ccc(OCc4ccccn4)c(Cl)c3)c(C#N)cnc2cc1O[C@@H]1CCOC1 [Example 139, (R,E)-N-(4-(3-CHLORO-4-(PYRIDIN-2-YL-METHOXY)PHENYLAMINO)-3-CYANO-7-(TETRAHYDROFURAN-3-YL-OXY)QUINOLIN-6-YL)-4-(DIMETHYLAMINO)-BUT-2-ENAMIDE]	201
–	–	CN(C)C/C=C/C(=O)Nc1cc2c(Nc3ccc(OCc4cccc(Cl)c4)c(Cl)c3)c(C#N)cnc2cc1OC1CCOC1 (stereo not shown) [Example 11, (E)-N-(4-(4-(3-CHLOROBENZYLOXY)-3-CHLOROPHENYLAMINO)-3-CYANO-7-(TETRAHYDROFURAN-3-YL-OXY)QUINOLIN-6-YL)-4-(DIMETHYLAMINO)-BUT-2-ENAMIDE]	187
–	–	CN(C)C/C=C/C(=O)Nc1cc2c(Nc3ccc(OCc4ccccc4F)c(Cl)c3)c(C#N)cnc2cc1OC1CCOC1 (stereo not shown) [Example 8, (E)-N-(4-(4-(2-FLUOROBENZYLOXY)-3-CHLOROPHENYLAMINO)-3-CYANO-7-(TETRAHYDROFURAN-3-YL-OXY)QUINOLIN-6-YL)-4-(DIMETHYLAMINO)-BUT-2-ENAMIDE]	188
–	–	CN(C)C/C=C/C(=O)Nc1cc2c(Nc3ccc(OCc4ccccc4C#N)c(Cl)c3)c(C#N)cnc2cc1OC1CCOC1 (stereo not shown) [Example 13, (E)-N-(4-(4-(2-CYANOBENZYLOXY)-3-CHLOROPHENYLAMINO)-3-CYANO-7-(TETRAHYDROFURAN-3-YL-OXY)QUINOLIN-6-YL)-4-(DIMETHYLAMINO)-BUT-2-ENAMIDE]	300
553	6600	CN(C)C/C=C/C(=O)Nc1cc2c(Nc3ccc(F)c(Cl)c3)c(C#N)cnc2cc1O[C@H]1CCOC1 [Example 142, (S,E)-N-(4-(3-CHLORO-4-FLUOROPHENYLAMINO)-3-CYANO-7-(TETRAHYDROFURAN-3-YL-OXY)QUINOLIN-6-YL)-4-(DIMETHYLAMINO)-BUT-2-ENAMIDE]	115
–	–	CN(C)C/C=C/C(=O)Nc1cc2c(Nc3cccc(Br)c3)c(C#N)cnc2cc1OC1CCOC1 (stereo not shown) [Example 7, (E)-N-(4-(3-BROMOPHENYLAMINO)-3-CYANO-7-(TETRAHYDROFURAN-3-YL-OXY)QUINOLIN-6-YL)-4-(DIMETHYLAMINO)-BUT-2-ENAMIDE]	474
–	–	C#Cc1cccc(Nc2c(C#N)cnc3cc(O[C@H]4CCOC4)c(NC(=O)/C=C/CN(C)Cc4ccccc4)cc23)c1 [Example 149, (S,E)-N-(3-CYANO-4-(3-ETHYNYLPHENYLAMINO)-7-(TETRAHYDROFURAN-3-YL-OXY)QUINOLIN-6-YL)-4-(N-METHYLBENZYLAMINO)-BUT-2-ENAMIDE]	163
–	–	C#Cc1cccc(Nc2c(C#N)cnc3cc(O[C@H]4CCOC4)c(NC(=O)/C=C/CNC(C)(C)C)cc23)c1 [Example 146, (S,E)-N-(3-CYANO-4-(3-ETHYNYLPHENYLAMINO)-7-(TETRAHYDROFURAN-3-YL-OXY)QUINOLIN-6-YL)-4-(TERT-BUTYLAIMINO)-BUT-2-ENAMIDE]	200
–	3760	CCN(CC)C/C=C/C(=O)Nc1cc2c(Nc3ccc(OCc4ccccn4)c(Cl)c3)c(C#N)cnc2cc1O[C@H]1CCOC1 [Example 150, (S,E)-N-(4-(3-CHLORO-4-(PYRIDIN-2-YL-METHOXY)PHENYLAMINO)-3-CYANO-7-(TETRAHYDROFURAN-3-YL-OXY)QUINOLIN-6-YL)-4-(DIETHYLAMINO)-BUT-2-ENAMIDE]	207
–	3600	N#Cc1cnc2cc(O[C@H]3CCOC3)c(NC(=O)/C=C/CN3CCCCC3)cc2c1Nc1ccc(OCc2ccccn2)c(Cl)c1 [Example 151, (S,E)-N-(4-(3-CHLORO-4-(PYRIDIN-2-YL-METHOXY)PHENYLAMINO)-3-CYANO-7-(TETRAHYDROFURAN-3-YL-OXY)QUINOLIN-6-YL)-4-(PIPERIDIN-1-YL)-BUT-2-ENAMIDE]	244

Source: patent publication US9187458B2, “Cyanoquinoline derivatives” (Tianjin Hemay Bio-Tech Co., LTD., priority 2010, dated 2015)
